Assay results from ChEMBL document CHEMBL1201862, “PubChem BioAssay data set” (2004).
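48-hour exposure; five concentrations; linearly interpolated endpoints. GI50 is the concentration that inhibits growth by half.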 Active and inactive are the calls of the source. Cut-off read from the data, not from the text of the source: active = GI50 up to about 1.1 µM and inactive = higher.

Assays:
Assay in all cases: growth of human tumour cells (NCI), 48 h
786-0 = test system: 786-0
A498 = test system: A498
A549 = test system: A549
ACHN = test system: ACHN
BT-549 = test system: BT-549
CAKI-1 = test system: CAKI-1
CCRF-CEM = test system: CCRF-CEM
COLO 205 = test system: COLO 205
DU-145 = test system: DU-145
EKVX = test system: EKVX
HCC 2998 = test system: HCC 2998
HCT-116 = test system: HCT-116
HCT-15 = test system: HCT-15
HL-60 = test system: HL-60
HOP-62 = test system: HOP-62
HOP-92 = test system: HOP-92
HT-29 = test system: HT-29
Hs-578T = test system: Hs-578T
IGROV-1 = test system: IGROV-1
K562 = test system: K562
KM12 = test system: KM12
LOX IMVI = test system: LOX IMVI
M14 = test system: M14
MCF7 = test system: MCF7
MDA-MB-231 = test system: MDA-MB-231
MDA-MB-435 = test system: MDA-MB-435
MDA-N = test system: MDA-N
MOLT-4 = test system: MOLT-4
Malme-3M = test system: Malme-3M
NCI-H226 = test system: NCI-H226
NCI-H23 = test system: NCI-H23
NCI-H460 = test system: NCI-H460
NCI-H522 = test system: NCI-H522
NCI/ADR-RES = test system: NCI/ADR-RES
OVCAR-3 = test system: OVCAR-3
OVCAR-4 = test system: OVCAR-4
OVCAR-5 = test system: OVCAR-5
OVCAR-8 = test system: OVCAR-8
PC-3 = test system: PC-3
RPMI-8226 = test system: RPMI-8226
RXF 393 = test system: RXF 393
SF-268 = test system: SF-268
SF-295 = test system: SF-295
SF-539 = test system: SF-539
SK-MEL-28 = test system: SK-MEL-28
SK-MEL-2 = test system: SK-MEL-2
SK-MEL-5 = test system: SK-MEL-5
SK-OV-3 = test system: SK-OV-3
SN12C = test system: SN12C
SNB-19 = test system: SNB-19
SNB-75 = test system: SNB-75
SR = test system: SR
SW-620 = test system: SW-620
T47D = test system: T47D
TK-10 = test system: TK-10
U-251 = test system: U-251
UACC-257 = test system: UACC-257
UACC-62 = test system: UACC-62
UO-31 = test system: UO-31

Measured: GI50

C[C@@H]1CC[C@@]2(NC1)O[C@H]1C[C@H]3[C@@H]4CC[C@H]5C[C@@H](O)CC[C@]5(C)[C@H]4CC[C@]3(C)[C@H]1[C@@H]2C
36.9 µM: HCT-15
inactive: 786-0 31.6 µM | A498 68.7 µM | A549 > 100 µM | ACHN 33.6 µM | BT-549 > 100 µM | CAKI-1 > 100 µM | CCRF-CEM > 100 µM | COLO 205 57.1 µM | DU-145 > 100 µM | EKVX > 100 µM | HCC 2998 37.2 µM | HCT-116 45.5 µM | HL-60 21.6 µM | HOP-62 64.4 µM | HOP-92 93.5 µM | HT-29 57.4 µM | Hs-578T 46 µM | IGROV-1 90.2 µM | K562 63.1 µM | KM12 27.3 µM | LOX IMVI 32.7 µM | M14 65.2 µM | MCF7 51.5 µM | MDA-MB-231 38.1 µM | MDA-MB-435 > 100 µM | MDA-N 36 µM | MOLT-4 > 100 µM | Malme-3M > 100 µM | NCI-H226 > 100 µM | NCI-H23 77.3 µM | NCI-H460 54.3 µM | NCI-H522 > 100 µM | NCI/ADR-RES 30.8 µM | OVCAR-3 61.7 µM | OVCAR-4 26.8 µM | OVCAR-5 > 100 µM | OVCAR-8 21.5 µM | PC-3 82.4 µM | RPMI-8226 31.2 µM | RXF 393 > 100 µM | SF-268 > 100 µM | SF-295 35.5 µM | SF-539 25.3 µM | SK-MEL-28 > 100 µM | SK-MEL-2 > 100 µM | SK-MEL-5 42.1 µM | SK-OV-3 27.4 µM | SN12C 55.5 µM | SNB-19 30.6 µM | SNB-75 61.9 µM | SR 35.5 µM | SW-620 88.9 µM | T47D > 100 µM | TK-10 35.3 µM | U-251 61.2 µM | UACC-257 > 100 µM | UACC-62 57.3 µM | UO-31 42.3 µM

COc1ccc(/C=C(\C(=C/c2ccc(OC)cc2)[N+](=O)[O-])[N+](=O)[O-])cc1
inactive: 786-0 2.04 µM | A498 30.3 µM | A549 22.7 µM | ACHN 5.96 µM | BT-549 6.1 µM | CAKI-1 3.18 µM | COLO 205 3.68 µM | DU-145 12.1 µM | EKVX 8.71 µM | HCC 2998 15.5 µM | HCT-116 10.2 µM | HOP-62 5.47 µM | HOP-92 3.84 µM | HT-29 3.39 µM | Hs-578T 4.18 µM | IGROV-1 4.55 µM | K562 3.92 µM | KM12 14.6 µM | LOX IMVI 2.05 µM | M14 4.11 µM | MCF7 6.31 µM | MDA-MB-231 2.07 µM | MDA-MB-435 3.4 µM | MDA-N 3.14 µM | MOLT-4 2.96 µM | Malme-3M 3.34 µM | NCI-H226 3.97 µM | NCI-H23 4.46 µM | NCI-H460 5.64 µM | NCI-H522 2.58 µM | NCI/ADR-RES 1.93 µM | OVCAR-3 12.8 µM | OVCAR-4 12.8 µM | OVCAR-5 10.3 µM | OVCAR-8 2.03 µM | PC-3 5.85 µM | RPMI-8226 3.15 µM | RXF 393 1.54 µM | SF-268 4.09 µM | SF-295 14.3 µM | SF-539 2.24 µM | SK-MEL-28 2.31 µM | SK-MEL-2 11.6 µM | SK-MEL-5 4.07 µM | SK-OV-3 16.6 µM | SN12C 2.88 µM | SNB-19 10.1 µM | SNB-75 26.1 µM | SR 2.03 µM | SW-620 2.52 µM | T47D 8.83 µM | TK-10 5.71 µM | U-251 2.58 µM | UACC-257 5.22 µM | UACC-62 2.91 µM | UO-31 4.53 µM
active: CCRF-CEM 0.429 µM | HL-60 0.261 µM
2.55 µM: HCT-15

C[N+]1(CCCCN2c3ccccc3Sc3cc(N=[N+]=[N-])ccc32)CCN(C(=O)CCNC(=O)Cc2ccc(C(=O)c3ccccc3)cc2)CC1
22.8 µM: HCT-15
inactive: 786-0 27 µM | A498 26.4 µM | A549 27.4 µM | ACHN 19.2 µM | BT-549 29.2 µM | CAKI-1 25.2 µM | CCRF-CEM 23.3 µM | COLO 205 14.7 µM | DU-145 19.1 µM | EKVX 31.9 µM | HCC 2998 16.1 µM | HCT-116 25.9 µM | HL-60 9.1 µM | HOP-62 22.6 µM | HOP-92 18.9 µM | HT-29 18.1 µM | Hs-578T 34 µM | IGROV-1 23.4 µM | K562 7.19 µM | KM12 24.3 µM | LOX IMVI 20.3 µM | M14 23.4 µM | MCF7 19.7 µM | MDA-MB-231 25.4 µM | MDA-MB-435 26.4 µM | MDA-N 24.8 µM | MOLT-4 23.1 µM | Malme-3M 18.7 µM | NCI-H226 36.1 µM | NCI-H23 26.4 µM | NCI-H460 24.6 µM | NCI-H522 24.4 µM | NCI/ADR-RES 35.9 µM | OVCAR-3 20.4 µM | OVCAR-4 21.2 µM | OVCAR-5 21.7 µM | OVCAR-8 34.7 µM | PC-3 20.5 µM | RPMI-8226 18.7 µM | RXF 393 31.5 µM | SF-268 23.4 µM | SF-295 21.7 µM | SF-539 32.9 µM | SK-MEL-28 16 µM | SK-MEL-2 29.4 µM | SK-MEL-5 20.6 µM | SK-OV-3 29 µM | SN12C 21.2 µM | SNB-19 26.9 µM | SNB-75 20.3 µM | SR 18.7 µM | SW-620 29.2 µM | T47D 21.3 µM | TK-10 11.4 µM | U-251 21.6 µM | UACC-257 31.3 µM | UACC-62 28.5 µM | UO-31 19.3 µM
